Experimental data published in patent publication US20030170229A1, “Vaccine” (SmithKline Beecham Biologicals s.a., priority 1999, published 2003).
“Also recorded” adds a separate entry of the source.

How the values were obtained:
[1] = tested on: P14 peptide; experiment: Anti-peptide ELISA on sera of mice immunised with P14 conjugates; assay type: in vivo, BalbC mice; settings: mice vaccinated with P14 conjugate
Experimental: (§1) The anti-peptide and anti-carrier immune responses were investigated using an ELISA technique outlined below. Microtiterplates (Nunc) are coated with the specific antigen in PBS (4° overnight) with either: Streptavidin at 2 μg/ml (followed by incubation with biotinylated peptide (1 μM) for 1 hour at 37° C.), Wash 3× PBS-Tween 20 0.1%. Saturate plates with PBS-BSA 1%-Tween 20 0.1% (Sat buffer) for 1 hr at 37°. Add 1° antibody=sera in two-step dilution (in Sat buffer), incubate 1 hr 30 minutes at 37°. Wash 3×. Add 2° anti-mouse Ig (or anti-mouse isotype specific monoclonal antibody) coupled to HRP. Incubate 1 hr at 37°. Wash 5×. Reveal with TMB (BioRad) for 10 minutes at room temperature in the dark. Block reaction with 0.4N H2SO4.
The conjugates comprising the mimotope P14 (25 μg protein/dose), described in example 1, were administered into groups of 10 BalbC mice, adjuvanted with and oil in water emulsion containing QS21 and 3D-MPL described in WO 95/17210. Boosting was be performed on days 14, 24 and 72, sera was harvested 14 days after each immunisation. The immune responses anti-peptide and anti-plate bound IgE was followed using ELISA methods described in Example 1. The antiserum was then tested for anaphylactogenicity and functional activity in the inhibition of histamine release from human allergic basophils (methods as described in example 1).

[2] = tested on: human IgE; experiment: IgE plate bound ELISA: anti-human IgE reactivity in serum of immunised mice; assay type: in vivo, mouse
[3] = tested on: allergic human basophils; experiment: Human basophil assay, blocking assay (inhibition of allergen-triggered histamine release); assay type: cell-based; settings: mouse antiserum; allergic human basophils triggered with allergen
Description: Samples of cells were lysed by 2× freeze/thawing to assay total histamine contained in the cells.
The degree of inhibition of histamine release can be calculated using the formula: […]
(histamine release from antigen stimulated cells*)
Values corrected for spontaneous release.

[4] = tested on: Peptide P11; experiment: Anti-P11 ELISA on sera of mice immunised with P11-BSA; assay type: in vivo; settings: P11 coupled to BSA, 25 μg in SBAS2 IM, 8 female BALB/c mice, days 0, 14, 28
Experimental: FIG. 5, Antibody response anti-P11. Peptide P11 is coated at 1 μg/ml in carbonate buffer at +4° C. overnight. After saturation of plates, two-fold serial dilution of sera are added and incubated for 1 h at 37° C. Bound IgG is detected with a biotinylated anti-mouse Ab followed by streptavidin-POD and TMB substrate. Time points measured A. days 14 post vaccination 1, and day 14 post v2; B, Day 14 post v3.
as §1
25 μg of conjugate formulated in SBAS2 was injected IM into 8 female BALB/c mice at days 0, 14 and 28. […] Anti-peptide and anti-IgE antibodies raised by vaccination were measured by ELISA, as described in Example 1.

Sequence	induction of anti-P14 immune response [1]	induction of anti-IgE immune response ([2]; mice vaccinated with P14 conjugate)	inhibition of histamine release by antiserum/antibodies raised by vaccination [3]	anti-IgE response ([2]; as expressed in mAb005 equivalents, all mice, after a third injection of P11 coupled to BSA) [µg/mL]	IgG anti-P11 response [4]
APEWPGSRDKRTC (Human peptide sequence) [Peptide P14]	capable of raising high titres	capable of raising high titres	potent in the inhibition of histamine release; also recorded: inhibited histamine release		
CRASGKPVNHSTRKEEKQRNGLL (Human peptide sequence) [Peptide P11]				28 to 244	detected already after one injection, but increased further after the second and third injection
